From ChEMBL document CHEMBL2311263, “Dibenzosuberones as p38 mitogen-activated protein kinase inhibitors with low ATP competitiveness and outstanding whole blood activity” (J Med Chem, 2013)
Active and inactive are the calls of the source. No cut-off for these calls is given here.

Key:
[1] = target: T1, Mitogen-activated protein kinase 14 (Homo sapiens, UniProt Q16539); test: Inhibition of p38alpha MAP kinase in whole blood (unknown origin) assessed as lipopolysaccharide-stimulated TNF-alpha release by ELISA
T1 sequence (Q16539 whole entry): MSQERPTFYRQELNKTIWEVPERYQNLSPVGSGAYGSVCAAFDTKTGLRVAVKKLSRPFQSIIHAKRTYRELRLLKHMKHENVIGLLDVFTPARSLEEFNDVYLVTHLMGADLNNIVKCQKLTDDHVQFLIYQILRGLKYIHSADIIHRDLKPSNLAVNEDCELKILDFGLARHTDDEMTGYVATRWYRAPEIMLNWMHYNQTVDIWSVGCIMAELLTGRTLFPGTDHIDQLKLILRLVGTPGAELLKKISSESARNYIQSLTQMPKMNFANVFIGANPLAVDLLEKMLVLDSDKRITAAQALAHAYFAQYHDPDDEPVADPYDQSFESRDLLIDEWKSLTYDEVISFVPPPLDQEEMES

[2] = target: T1, Mitogen-activated protein kinase 14; test: Inhibition of p38alpha MAP kinase (unknown origin) by ELISA
[3] = target: T1, Mitogen-activated protein kinase 14; details: Blood, 1 uM
[4] = target: Casein kinase I isoform epsilon (Homo sapiens) (UniProt P49674); test: Inhibition of CSNK1E (unknown origin)
Chain of Casein kinase I isoform epsilon (Homo sapiens) (P49674 whole entry, looked up, canonical isoform): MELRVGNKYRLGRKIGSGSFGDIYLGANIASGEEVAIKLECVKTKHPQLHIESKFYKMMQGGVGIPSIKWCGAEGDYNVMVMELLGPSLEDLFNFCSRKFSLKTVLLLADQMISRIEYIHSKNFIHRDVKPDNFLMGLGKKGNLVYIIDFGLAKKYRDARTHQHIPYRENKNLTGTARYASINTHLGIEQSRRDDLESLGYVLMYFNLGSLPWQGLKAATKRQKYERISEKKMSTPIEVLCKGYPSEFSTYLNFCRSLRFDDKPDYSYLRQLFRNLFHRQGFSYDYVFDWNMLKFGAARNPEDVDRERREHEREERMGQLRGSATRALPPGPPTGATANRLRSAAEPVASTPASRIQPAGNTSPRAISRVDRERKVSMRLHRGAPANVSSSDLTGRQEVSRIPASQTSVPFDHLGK

[5] = target: Mitogen-activated protein kinase 11 (Homo sapiens) (UniProt Q15759); test: Inhibition of p38beta MAP kinase (unknown origin)
Chain of Mitogen-activated protein kinase 11 (Homo sapiens) (Q15759 whole entry): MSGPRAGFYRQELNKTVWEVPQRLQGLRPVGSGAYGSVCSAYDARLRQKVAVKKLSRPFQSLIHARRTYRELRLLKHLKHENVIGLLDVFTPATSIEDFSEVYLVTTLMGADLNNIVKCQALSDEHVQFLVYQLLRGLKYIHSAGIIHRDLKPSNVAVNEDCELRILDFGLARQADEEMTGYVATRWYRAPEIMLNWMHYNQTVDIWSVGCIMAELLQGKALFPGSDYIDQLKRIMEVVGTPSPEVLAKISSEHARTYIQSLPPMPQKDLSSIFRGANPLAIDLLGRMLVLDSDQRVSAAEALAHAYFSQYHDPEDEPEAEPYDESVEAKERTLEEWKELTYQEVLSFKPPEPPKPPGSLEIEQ

[6] = target: T1, Mitogen-activated protein kinase 14; test: Inhibition of p38alpha MAP kinase in whole blood (unknown origin) assessed as lipopolysaccharide-stimulated TNF-alpha release measuring residual activity at 10 uM by ELISA

Structure (SMILES) | IC50 [1] [nM] | IC50 [2] [nM] | further results
CS(=O)(=O)CCNC(=O)c1ccc2c(c1)C(=O)c1ccc(Nc3ccc(F)cc3F)cc1CC2 | 50 | 3 | –
COC(=O)CC[C@H](NC(=O)c1ccc2c(c1)C(=O)c1ccc(Nc3ccc(F)cc3F)cc1CC2)C(=O)OC | 18 | 5 | –
C[C@@H](NC(=O)c1ccc2c(c1)C(=O)c1ccc(Nc3ccc(F)cc3F)cc1CC2)C1CCCCC1 | 7600 | 89 | –
O=C(Nc1cc(Nc2ccc3c(c2)CCc2ccc(OCCN4CCOCC4)cc2C3=O)ccc1F)c1cccs1 | 95 | 0.7 | –
O=C(NCCN1CCOCC1)c1ccc2c(c1)C(=O)c1ccc(Nc3ccc(F)cc3F)cc1CC2 | 29 | 3 | –
O=C1c2ccc(Nc3ccc(F)c(NC(=O)C4CCOC4)c3)cc2CCc2ccc(OCCO)cc21 (configuration not stated) | 1500 | 20 | –
O=C(Nc1cc(Nc2ccc3c(c2)CCc2ccccc2C3=O)c(F)cc1F)c1ccccc1 | 290 | 4 | –
CNC(=O)c1ccc2c(c1)C(=O)c1ccc(Nc3ccc(F)cc3F)cc1CC2 | 37 | 3 | –
O=C(OCCN1CCOCC1)c1ccc2c(c1)C(=O)c1ccc(Nc3ccc(F)cc3F)cc1CC2 | 240 | 1 | –
NC(=O)c1ccc2c(c1)C(=O)c1ccc(Nc3ccc(F)cc3F)cc1CC2 | 19 | 10 | –
CC(C)C[C@H](NC(=O)c1ccc2c(c1)C(=O)c1ccc(Nc3ccc(F)cc3F)cc1CC2)C(=O)O | – | 94 | inhibition [3]: inactive
CSCCNC(=O)c1ccc2c(c1)C(=O)c1ccc(Nc3ccc(F)cc3F)cc1CC2 | 36 | 2 | –
O=C(Nc1cc(Nc2ccc3c(c2)CCc2ccc(OCCN4CCOCC4)cc2C3=O)c(F)cc1F)c1ccccc1 | 220 | 1 | –
CCCOC(=O)c1ccc2c(c1)C(=O)c1ccc(Nc3ccc(F)cc3F)cc1CC2 | 220 | 8 | –
O=C(Nc1cc(Nc2ccc3c(c2)CCc2ccc(OCCN4CCOCC4)cc2C3=O)ccc1F)c1ccccc1 | 260 | 1 | –
O=C(NCCN1CCOCC1)c1ccc2c(c1)C(=O)c1ccc(Nc3ccc(F)c(NC(=O)c4ccccc4)c3)cc1CC2 | – | – | inhibition [4]: Active; inhibition [5]: Active
O=C(Nc1cc(Nc2ccc3c(c2)CCc2ccc(OCCO)cc2C3=O)ccc1F)c1ccccc1 | 2400 | 2 | –
COC(=O)c1ccc2c(c1)C(=O)c1ccc(Nc3ccc(F)cc3F)cc1CC2 | 160 | 2 | –
O=C(NCC(O)CO)c1ccc2c(c1)C(=O)c1ccc(Nc3ccc(F)cc3F)cc1CC2 (configuration not stated) | 29 | 2 | inhibition [5]: Active
CC1(C)OC[C@@H](COc2ccc3c(c2)C(=O)c2ccc(Nc4ccc(F)c(NC(=O)c5ccccc5)c4)cc2CC3)O1 | 450 | 27 | –
O=C(OCCO)c1ccc2c(c1)C(=O)c1ccc(Nc3ccc(F)cc3F)cc1CC2 | 210 | 2 | –
O=C(Nc1ccc(F)c(Nc2ccc3c(c2)CCc2ccc(OCCO)cc2C3=O)c1)c1ccccc1 | 9000 | 2 | –
COC(=O)[C@H](CC(C)C)NC(=O)c1ccc2c(c1)C(=O)c1ccc(Nc3ccc(F)cc3F)cc1CC2 | 460 | 7 | –

Structure (SMILES) | IC50 [1] [nM] | IC50 [2] [nM] | further results
CC1(C)OC[C@H](COc2ccc3c(c2)C(=O)c2ccc(Nc4ccc(F)c(NC(=O)c5cccs5)c4)cc2CC3)O1 | 300 | 2 | –
O=C(Nc1cc(Nc2ccc3c(c2)CCc2ccc(OCCN4CCOCC4)cc2C3=O)c(F)cc1F)c1ccsc1 | 12 | – | –
O=C(Nc1cc(Nc2ccc3c(c2)CCc2ccc(OC[C@H](O)CO)cc2C3=O)ccc1F)c1cccs1 | 42 | 7 | –
Cc1cc(F)c(NC(=O)C2CCOC2)cc1Nc1ccc2c(c1)CCc1ccc(OCCN3CCOCC3)cc1C2=O (configuration not stated) | 570 | 98 | –
Cc1cc(F)c(NC(=O)c2ccoc2)cc1Nc1ccc2c(c1)CCc1ccc(OCCN3CCOCC3)cc1C2=O | 32 | 1 | –
CCOC(=O)CNC(=O)c1ccc2c(c1)C(=O)c1ccc(Nc3ccc(F)cc3F)cc1CC2 | 95 | 6 | –
COCCNC(=O)c1ccc2c(c1)C(=O)c1ccc(Nc3ccc(F)cc3F)cc1CC2 | 54 | 5 | –
CN1CCN(CCCNC(=O)c2ccc3c(c2)C(=O)c2ccc(Nc4ccc(F)cc4F)cc2CC3)CC1 | 19 | 10 | –
O=C(NC(CO)CO)c1ccc2c(c1)C(=O)c1ccc(Nc3ccc(F)cc3F)cc1CC2 | 17 | 9 | –
CCOC(=O)c1ccc2c(c1)C(=O)c1ccc(Nc3ccc(F)cc3F)cc1CC2 | 270 | 3 | –
O=C(NCCO)c1ccc2c(c1)C(=O)c1ccc(Nc3ccc(F)cc3F)cc1CC2 | 27 | 5 | –
O=C1c2ccc(Nc3ccc(F)cc3F)cc2CCc2ccc(C(=O)N3CCOCC3)cc21 | – | 44 | Activity [6]: 39%
O=C(NCCF)c1ccc2c(c1)C(=O)c1ccc(Nc3ccc(F)cc3F)cc1CC2 | 83 | 2 | –
O=C(O)c1ccc2c(c1)C(=O)c1ccc(Nc3ccc(F)cc3F)cc1CC2 | 490 | 11 | –
COc1ccc2c(c1)C(=O)c1ccc(Nc3ccc(F)c(NC(=O)c4ccccc4)c3)cc1CC2 | 4100 | 21 | –
CN(C)CCNC(=O)c1ccc2c(c1)C(=O)c1ccc(Nc3ccc(F)cc3F)cc1CC2 | 18 | 3 | –
O=C(Nc1cc(Nc2ccc3c(c2)CCc2ccc(OCCN4CCOCC4)cc2C3=O)ccc1F)c1ccsc1 | 26 | 0.3 | –
O=C(Nc1cc(Nc2ccc3c(c2)CCc2ccc(OCCN4CCOCC4)cc2C3=O)ccc1F)c1ccoc1 | 110 | 1 | –
CNC(=O)CC[C@H](NC(=O)c1ccc2c(c1)C(=O)c1ccc(Nc3ccc(F)cc3F)cc1CC2)C(=O)NC | 64 | 14 | –
CN1CCN(CCNC(=O)c2ccc3c(c2)C(=O)c2ccc(Nc4ccc(F)cc4F)cc2CC3)CC1 | 27 | 10 | –
CC(=O)Oc1ccc2c(c1)C(=O)c1ccc(Nc3ccc(F)cc3F)cc1CC2 | 2300 | 29 | –
O=C(NCCCl)c1ccc2c(c1)C(=O)c1ccc(Nc3ccc(F)cc3F)cc1CC2 | 64 | 3 | –
O=C1c2ccc(Nc3cc(NC(=O)C4CCOC4)c(F)cc3F)cc2CCc2ccc(OCCN3CCOCC3)cc21 (configuration not stated) | 150 | 12 | –
